PubChem BioAssay (NCI)
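Compound exposure: 48 hours, 5 concentrations, 96-well plates. The concentration for 50% growth inhibition is given as GI50. At the TGI there is no net growth.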

What was measured:
Test in all cases: NCI-60 cell line screen, 48 h
OVCAR-5 ovarian = tested on: OVCAR-5 ovarian
EKVX NSCLC = tested on: EKVX NSCLC
MOLT-4 leukemia = tested on: MOLT-4 leukemia
NCI-H522 lung = tested on: NCI-H522 lung
A498 renal = tested on: A498 renal
DU-145 prostate = tested on: DU-145 prostate
CAKI-1 renal = tested on: CAKI-1 renal
MALME-3M melanoma = tested on: MALME-3M melanoma
HOP-62 NSCLC = tested on: HOP-62 NSCLC
M14 melanoma = tested on: M14 melanoma
MCF7 breast = tested on: MCF7 breast
SF-539 CNS = tested on: SF-539 CNS
TK-10 renal = tested on: TK-10 renal
SW-620 colon = tested on: SW-620 colon
SK-OV-3 ovarian = tested on: SK-OV-3 ovarian
SF-295 CNS = tested on: SF-295 CNS
UACC-62 melanoma = tested on: UACC-62 melanoma
HOP-92 NSCLC = tested on: HOP-92 NSCLC
SK-MEL-28 melanoma = tested on: SK-MEL-28 melanoma
HCT-15 colon = tested on: HCT-15 colon
UO-31 renal = tested on: UO-31 renal
OVCAR-8 ovarian = tested on: OVCAR-8 ovarian
BT-549 breast = tested on: BT-549 breast
SK-MEL-2 melanoma = tested on: SK-MEL-2 melanoma
MDA-MB-435 = tested on: MDA-MB-435
IGROV1 ovarian = tested on: IGROV1 ovarian
SNB-75 CNS = tested on: SNB-75 CNS
HL-60(TB) leukemia = tested on: HL-60(TB) leukemia
PC-3 prostate = tested on: PC-3 prostate
COLO 205 colon = tested on: COLO 205 colon
HS 578T breast = tested on: HS 578T breast
UACC-257 melanoma = tested on: UACC-257 melanoma
NCI-H23 lung = tested on: NCI-H23 lung
SNB-19 CNS = tested on: SNB-19 CNS
K-562 leukemia = tested on: K-562 leukemia
SK-MEL-5 melanoma = tested on: SK-MEL-5 melanoma
U251 CNS = tested on: U251 CNS
RXF 393 renal = tested on: RXF 393 renal
HCT-116 colon = tested on: HCT-116 colon
T-47D breast = tested on: T-47D breast
786-0 renal = tested on: 786-0 renal
A549 NSCLC = tested on: A549 NSCLC
RPMI-8226 leukemia = tested on: RPMI-8226 leukemia
OVCAR-4 ovarian = tested on: OVCAR-4 ovarian
LOX IMVI melanoma = tested on: LOX IMVI melanoma
OVCAR-3 ovarian = tested on: OVCAR-3 ovarian
MDA-MB-231 breast = tested on: MDA-MB-231 breast
HT29 colon = tested on: HT29 colon
SN12C renal = tested on: SN12C renal
NCI-H460 lung = tested on: NCI-H460 lung
NCI/ADR-RES ovarian = tested on: NCI/ADR-RES ovarian
CCRF-CEM leukemia = tested on: CCRF-CEM leukemia
SF-268 CNS = tested on: SF-268 CNS
ACHN renal = tested on: ACHN renal
NCI-H226 lung = tested on: NCI-H226 lung
KM12 colon = tested on: KM12 colon
HCC-2998 colon = tested on: HCC-2998 colon

With `Cc1cc(=O)oc2cc(OC/C=C3\CCC(=O)O3)ccc12` the GI50 (OVCAR-5 ovarian) was 17.1 µM, the TGI (OVCAR-5 ovarian) was 36.4 µM and the GI50 (EKVX NSCLC) was 21 µM. The TGI (EKVX NSCLC) was 54.4 µM, the TGI (MOLT-4 leukemia) was 0.011 µM and the GI50 (NCI-H522 lung) was 7.82 µM. It also gave a TGI (NCI-H522 lung) of 23 µM, a GI50 (A498 renal) of 28.7 µM and a TGI (A498 renal) of 79.4 µM. It also gave a GI50 (DU-145 prostate) of 5.31 µM, a TGI (DU-145 prostate) of 22.9 µM and a GI50 (CAKI-1 renal) of 7.59 µM. For the same compound, the TGI (CAKI-1 renal) was 26.8 µM, the GI50 (MALME-3M melanoma) was 13.6 µM and the TGI (MALME-3M melanoma) was 33 µM. The GI50 (HOP-62 NSCLC) was 21.6 µM, the TGI (HOP-62 NSCLC) was 58 µM and the GI50 (M14 melanoma) was 9.51 µM. For the same compound, the TGI (M14 melanoma) was 25 µM, the GI50 (MCF7 breast) was 5.73 µM and the TGI (MCF7 breast) was 27.6 µM. It also gave a GI50 (SF-539 CNS) of 13.1 µM, a TGI (SF-539 CNS) of 46.1 µM and a GI50 (TK-10 renal) of 12.2 µM. It also gave a TGI (TK-10 renal) of 27.2 µM, a GI50 (SW-620 colon) of 5.56 µM and a TGI (SW-620 colon) of 28 µM. It also gave a GI50 (SK-OV-3 ovarian) of 28.2 µM, a TGI (SK-OV-3 ovarian) of over 76 µM and a GI50 (SF-295 CNS) of 59 µM. It also gave a TGI (SF-295 CNS) of over 100 µM, a GI50 (UACC-62 melanoma) of 13.8 µM and a TGI (UACC-62 melanoma) of 28.7 µM. The GI50 (HOP-92 NSCLC) was 12.1 µM, the TGI (HOP-92 NSCLC) was 28.4 µM and the GI50 (SK-MEL-28 melanoma) was 16.4 µM. The TGI (SK-MEL-28 melanoma) was 33.6 µM, the GI50 (HCT-15 colon) was 10.6 µM and the TGI (HCT-15 colon) was 23.9 µM. For the same compound, the GI50 (UO-31 renal) was 12.8 µM, the TGI (UO-31 renal) was 26.3 µM and the GI50 (OVCAR-8 ovarian) was 23.5 µM. For the same compound, the TGI (OVCAR-8 ovarian) was over 74.5 µM, the GI50 (BT-549 breast) was 15.8 µM and the TGI (BT-549 breast) was 40 µM. For the same compound, the GI50 (SK-MEL-2 melanoma) was 17.9 µM, the TGI (SK-MEL-2 melanoma) was 60.2 µM and the GI50 (MDA-MB-435) was 7.23 µM. For the same compound, the TGI (MDA-MB-435) was 40.9 µM, the GI50 (IGROV1 ovarian) was 13.2 µM and the TGI (IGROV1 ovarian) was 28.7 µM. It also gave a GI50 (SNB-75 CNS) of 16.8 µM, a TGI (SNB-75 CNS) of 40.1 µM and a GI50 (HL-60(TB) leukemia) of 4.47 µM. For the same compound, the TGI (HL-60(TB) leukemia) was 32.2 µM, the GI50 (PC-3 prostate) was 9.01 µM and the TGI (PC-3 prostate) was 34.1 µM. The GI50 (COLO 205 colon) was 5.8 µM, the TGI (COLO 205 colon) was 20.5 µM and the GI50 (HS 578T breast) was 22.9 µM. It also gave a TGI (HS 578T breast) of over 87.4 µM, a GI50 (UACC-257 melanoma) of 21.5 µM and a TGI (UACC-257 melanoma) of over 62.1 µM. The GI50 (NCI-H23 lung) was 14.4 µM, the TGI (NCI-H23 lung) was 29.9 µM and the GI50 (SNB-19 CNS) was 15.5 µM. It also gave a TGI (SNB-19 CNS) of 49.2 µM, a TGI (K-562 leukemia) of 7.84 µM and a GI50 (SK-MEL-5 melanoma) of 17.6 µM. For the same compound, the TGI (SK-MEL-5 melanoma) was 37 µM, the GI50 (U251 CNS) was 14.5 µM and the TGI (U251 CNS) was 30.9 µM. The GI50 (RXF 393 renal) was 13.1 µM, the TGI (RXF 393 renal) was 31.9 µM and the GI50 (HCT-116 colon) was 8.38 µM. For the same compound, the TGI (HCT-116 colon) was 24.6 µM, the GI50 (T-47D breast) was 14.3 µM and the TGI (T-47D breast) was 35.3 µM. It also gave a GI50 (786-0 renal) of 10.5 µM, a TGI (786-0 renal) of 44.1 µM and a GI50 (A549 NSCLC) of 31.2 µM. For the same compound, the TGI (A549 NSCLC) was over 91.4 µM, the GI50 (RPMI-8226 leukemia) was 3.2 µM and the TGI (RPMI-8226 leukemia) was 18.7 µM. The GI50 (OVCAR-4 ovarian) was 15.8 µM, the TGI (OVCAR-4 ovarian) was 37.4 µM and the GI50 (LOX IMVI melanoma) was 7.99 µM. For the same compound, the TGI (LOX IMVI melanoma) was 22.9 µM, the GI50 (OVCAR-3 ovarian) was 12.2 µM and the TGI (OVCAR-3 ovarian) was 28.8 µM. It also gave a GI50 (MDA-MB-231 breast) of 16.9 µM, a TGI (MDA-MB-231 breast) of 34.7 µM and a GI50 (HT29 colon) of 9.7 µM. It also gave a TGI (HT29 colon) of 29.3 µM, a GI50 (SN12C renal) of 15.2 µM and a TGI (SN12C renal) of 34.9 µM. For the same compound, the GI50 (NCI-H460 lung) was 19.3 µM, the TGI (NCI-H460 lung) was over 62.7 µM and the GI50 (NCI/ADR-RES ovarian) was 23 µM. It also gave a TGI (NCI/ADR-RES ovarian) of 82.9 µM, a GI50 (CCRF-CEM leukemia) of 3.96 µM and a TGI (CCRF-CEM leukemia) of 30.3 µM. For the same compound, the GI50 (SF-268 CNS) was 15.3 µM, the TGI (SF-268 CNS) was 50.2 µM and the GI50 (ACHN renal) was 5.05 µM. The TGI (ACHN renal) was 15.4 µM, the GI50 (NCI-H226 lung) was 24 µM and the TGI (NCI-H226 lung) was over 63.1 µM. It also gave a GI50 (KM12 colon) of 18 µM, a TGI (KM12 colon) of 47.9 µM and a GI50 (HCC-2998 colon) of 16 µM. It also gave a TGI (HCC-2998 colon) of 31.4 µM.
